These results are taken from US20150126516A1, “PIPERIDINE COMPOUND AND ITS USE IN PEST CONTROL” (Sumitomo Chemical Company, Limited, priority 2012, published 2015).

Where two headings read alike, the source gives them in different places. Where only a bound is given, the exact number is not on record here.

In one experiment the test system is diamondback moths. Briefly: Controlling effect on diamondback moth, spray on cabbages. Type of experiment: in vivo. As to conditions: Plutella xylostella, 120 h, read-out: Mortality rate. The protocol:
Spray solutions for a test were prepared by diluting each formulation of the compounds 1, 11 to 14, 16, 17, 36, and 38 of the present invention, which were obtained from Formulation Example 5, with water so that the concentration of the active ingredients becomes 500 ppm.
Meanwhile, each of the above-described liquid solutions for the test was sprayed on cabbages in a third-leaf stage which were planted in polyethylene cups at a ratio of 20 mL/cup. After the liquid solutions were dried, the stems and leaves were cut and accommodated in each 50 mL cup. 5 second-instar larvae of diamondback moths were released in each cup, which was then covered with a lid. The cups were stored at 25° C., the number of surviving insects was counted after 5 days, and the mortality rate was obtained using the following formula.
(§1) Mortality(%)=(the number of dead insects/the number of insects provided for a test)×100

The test system of experiment [1] is summer fruit tortrix moths (Adoxophyes orana). Briefly: Controlling effect on summer fruit tortrix moth, treated artificial feed. Format: in vivo. The settings on record: 168 h. The protocol: Liquid medicines for a test were prepared by diluting each formulation of the compounds 1, 3, 6, 10, 12, 16, 17, 20, 21, 23, 26 to 29, 33, 38, and 42 of the present invention, which were obtained from Formulation Example 5, with water so that the concentration of the active ingredients becomes 500 ppm.
Silk Mates 2S (artificial feed: Nosan Corporation), which were sliced in a thickness of 2 mm, were placed on the bottom of polyethylene cups and 1 mL of each of the above-described liquid medicines for a test was irrigated thereto.
After air-drying, 30 first-instar larvae of summer fruit tortrix moths (Adoxophyes orana) were released in each cup, which was then covered with a lid. The cups were stored at 25° C., the number of surviving insects was counted after 7 days, and the mortality rate was obtained using the following formula.
as §1

The subject of the next experiment is cotton aphids. Description: Controlling effect on cotton aphid, spray on inoculated cucumber seedlings. Type of experiment: in vivo, Aphis gossypii. The settings on record: 144 h; 500 ppm active ingredient, 20 ml sprayed on cucumber seedlings with about 30 cotton aphids, 6 days after spraying.
Where [2] appears, read: 500 ppm, 1 mL on artificial feed, 30 first-instar larvae, 25° C., after 7 days, read-out: Mortality.
Setting [3] is: 500 ppm, 20 mL/cup sprayed on cabbages, 5 second-instar larvae, 25° C., after 5 days.

For orientation: mortality means the percentage killed. Take `O=C(NCC1(c2ccccc2)CCN(CCc2ccccc2C(F)(F)F)CC1)c1cc(Cl)nc(Cl)c1` [compound 1, 2,6-dichloro-N-((4-phenyl-1-(2-(trifluoromethyl)phenethyl)piperidin-4-yl)methyl)isonicotinamide]: the mortality at 500 ppm in the experiment on diamondback moths is not below 80%; in experiment [1], not below 90%.
By pest or weed control is commonly meant the degree to which the test organism was suppressed or injured, in per cent. `O=C(NCC1(c2ccccc2)CCN(CCc2ccccc2)CC1)c1ccnc(Cl)c1` [compound 2, 2-chloro-N-((1-phenethyl-4-phenylpiperidin-4-yl)methyl)isonicotinamide] showed a pest or weed control at 500 ppm in the experiment on cotton aphids not below 90%.
In turn, `O=C(NCC1(c2ccccc2)CCN(CCc2ccccc2C(F)(F)F)CC1)c1ccnc(Cl)c1` [compound 3, 2-chloro-N-((4-phenyl-1-(2-(trifluoromethyl)phenethyl)piperidin-4-yl)methyl)isonicotinamide] gave a pest or weed control at 500 ppm in the experiment with cotton aphids not below 90%. The molecule also displayed a mortality at 500 ppm in experiment [1] not below 90%.
For `O=C(NCC1(c2ccccc2)CCN(CCc2ccccc2)CC1)c1ccc(Cl)cc1` [compound 6, 4-chloro-N-((1-phenethyl-4-phenylpiperidin-4-yl)methyl)benzamide], in experiment [1] (setting [2]), the mortality at 500 ppm was not below 90%.
Still for that read-out and setting: for `O=C(NCC1(c2ccccc2)CCN(CCc2ccc(C(F)(F)F)cc2)CC1)c1ccnc(Cl)c1` [compound 10, 2-chloro-N-((4-phenyl-1-(4-(trifluoromethyl)phenethyl)piperidin-4-yl)methyl)isonicotinamide] the value was not below 90%.
In the experiment on cotton aphids, `O=C(NCC1(c2ccccc2)CCN(CCc2ccccc2C(F)(F)F)CC1)c1ccccc1` [compound 11, N-((4-phenyl-1-(2-(trifluoromethyl)phenethyl)piperidin-4-yl)methyl)benzamide] returned a pest or weed control at 500 ppm not below 90%. In the experiment with diamondback moths, the mortality at 500 ppm is not below 80%.
For `O=C(NCC1(c2ccccc2)CCN(CCc2ccccc2C(F)(F)F)CC1)c1cccc(Cl)c1` [compound 13, 3-chloro-N-((4-phenyl-1-(2-(trifluoromethyl)phenethyl)piperidin-4-yl)methyl)benzamide], the mortality at 500 ppm with diamondback moths (setting [3]) was not below 80%.
In the case of `O=C(NCC1(c2ccccc2)CCN(CCc2ccccc2C(F)(F)F)CC1)c1ccc(Cl)cc1` [compound 14, 4-chloro-N-((4-phenyl-1-(2-(trifluoromethyl)phenethyl)piperidin-4-yl)methyl)benzamide], the mortality at 500 ppm in the experiment with diamondback moths (setting [3]) is not below 80%.
With `O=C(NCC1(c2ccccc2)CCN(CCc2ccccc2C(F)(F)F)CC1)c1cc(Cl)cc(Cl)c1` [compound 17, 3,5-dichloro-N-((4-phenyl-1-(2-(trifluoromethyl)phenethyl)piperidin-4-yl)methyl)benzamide], the figures for the mortality at 500 ppm (in the experiment with diamondback moths (setting [3]); in experiment [1] (setting [2])) were not below 80% and not below 90%, respectively.
Turning to `O=C(NCC1(c2ccccc2)CCN(CCc2ccccc2)CC1)c1cc(Cl)nc(Cl)c1` [compound 20, 2,6-dichloro-N-((1-phenethyl-4-phenylpiperidin-4-yl)methyl)isonicotinamide], in the experiment with cotton aphids, the pest or weed control at 500 ppm was not below 90%. Also, the mortality at 500 ppm in experiment [1] is not below 90%.
For the molecule `O=C(NCC1(c2ccccc2)CCN(CCc2ccccc2C(F)(F)F)CC1)c1ncccc1Cl` [compound 21, 3-chloro-N-((4-phenyl-1-(2-(trifluoromethyl)phenethyl)piperidin-4-yl)methyl)picolinamide], the pest or weed control at 500 ppm in the experiment on cotton aphids is not below 90%. In experiment [1], this molecule came in with a mortality at 500 ppm not below 90%.
With `O=C(NCC1(c2cccc(Cl)c2)CCN(CCc2ccccc2C(F)(F)F)CC1)c1ccccc1Cl` [compound 23, 2-chloro-N-((4-(3-chlorophenyl)-1-(2-(trifluoromethyl)phenethyl)piperidin-4-yl)methyl)benzamide], the mortality at 500 ppm in experiment [1] (setting [2]) was not below 90%.
In the experiment on cotton aphids, `O=C(NCC1(c2ccccc2)CCN(CCc2ccccc2C(F)(F)F)CC1)c1cccnc1Cl` [compound 24, 2-chloro-N-((4-phenyl-1-(2-(trifluoromethyl)phenethyl)piperidin-4-yl)methyl)nicotinamide] had a pest or weed control at 500 ppm not below 90%.
On the same count and under the same terms, for `O=C(NCC1(c2ccccc2Cl)CCN(CCc2ccccc2C(F)(F)F)CC1)c1ccccc1Cl` [compound 25, 2-chloro-N-((4-(2-chlorophenyl)-1-(2-(trifluoromethyl)phenethyl)piperidin-4-yl)methyl)benzamide] the value was not below 90%.
For the molecule `COc1ccccc1CCN1CCC(CNC(=O)c2cc(Cl)nc(Cl)c2)(c2ccccc2)CC1` [compound 26, 2,6-dichloro-N-((1-(2-methoxyphenethyl)-4-phenylpiperidin-4-yl)methyl)isonicotinamide], the pest or weed control at 500 ppm with cotton aphids is not below 90%. Besides, the mortality at 500 ppm in experiment [1] was not below 90%.
As to `Cc1ccccc1CCN1CCC(CNC(=O)c2cc(Cl)nc(Cl)c2)(c2ccccc2)CC1` [compound 27, 2,6-dichloro-N-((1-(2-methylphenethyl)-4-phenylpiperidin-4-yl)methyl)isonicotinamide], in the experiment with cotton aphids, the pest or weed control at 500 ppm was not below 90%. The mortality at 500 ppm in experiment [1] was not below 90%.
Take `O=C(NCC1(c2ccccc2)CCN(CCc2ccccc2Cl)CC1)c1cc(Cl)nc(Cl)c1` [compound 29, 2,6-dichloro-N-((1-(2-chlorophenethyl)-4-phenylpiperidin-4-yl)methyl)isonicotinamide]: the pest or weed control at 500 ppm in the experiment with cotton aphids is not below 90%. In experiment [1], this molecule registered a mortality at 500 ppm not below 90%.
Consider `O=C(NCC1(c2ccccc2)CCN(CCc2cccc(Cl)c2Cl)CC1)c1cc(Cl)nc(Cl)c1` [compound 33, 2,6-dichloro-N-((1-(2,3-dichlorophenethyl)-4-phenylpiperidin-4-yl)methyl)isonicotinamide], for which, in experiment [1] (setting [2]), the mortality at 500 ppm is not below 90%.
Regarding `O=C(NCC1(c2ccccc2)CCN(CCc2ccccc2C(F)(F)F)CC1)c1c(F)cc(F)cc1F` [compound 36, 2,4,6-trifluoro-N-((4-phenyl-1-(2-(trifluoromethyl)phenethyl)piperidin-4-yl)methyl)benzamide], the pest or weed control at 500 ppm in the experiment on cotton aphids was not below 90%. In the experiment with diamondback moths, the mortality at 500 ppm is not below 80%.
`O=C(NCC1(c2cccnc2)CCN(CCc2ccccc2C(F)(F)F)CC1)c1cc(Cl)nc(Cl)c1` [compound 39, 2,6-dichloro-N-((4-(pyridin-3-yl)-1-(2-(trifluoromethyl)phenethyl)piperidin-4-yl)methyl)isonicotinamide]: in the experiment on cotton aphids, the pest or weed control at 500 ppm is not below 90%.
Molecule `O=C(NCC1(c2ncccc2F)CCN(CCc2ccccc2C(F)(F)F)CC1)c1ccnc(Cl)c1` [compound 40, 2-chloro-N-((4-(3-fluoropyridin-2-yl)-1-(2-(trifluoromethyl)phenethyl)piperidin-4-yl)methyl)isonicotinamide] showed a pest or weed control at 500 ppm in the experiment with cotton aphids not below 90%.
As for `O=C(NCC1(c2ccccn2)CCN(CCc2ccccc2C(F)(F)F)CC1)c1ccccc1Cl` [compound 41, 2-chloro-N-((4-(pyridin-2-yl)-1-(2-(trifluoromethyl)phenethyl)piperidin-4-yl)methyl)benzamide], in the experiment with cotton aphids, the pest or weed control at 500 ppm is not below 90%.
In the experiment with cotton aphids, `COc1ccccc1C(=O)NCC1(c2ccccn2)CCN(CCc2ccccc2C(F)(F)F)CC1` [compound 42, 2-methoxy-N-((4-(pyridin-2-yl)-1-(2-(trifluoromethyl)phenethyl)piperidin-4-yl)methyl)benzamide] displayed a pest or weed control at 500 ppm not below 90%. For the same molecule, in experiment [1], the mortality at 500 ppm is not below 90%.
